Measured values published in PMC11678328, “Phosphine Oxide Indenoquinoline Derivatives: Synthesis and Biological Evaluation as Topoisomerase I Inhibitors and Antiproliferative Agents” (Molecules, 2024).

Assays:
[1] = system: A549 (carcinomic human alveolar basal epithelial cell); assay: CCK-8 cytotoxicity assay, A549; assay type: cell-based; conditions: for IC50: A549 cells, 48h, CCK-8
Excerpt: (§1) The cytotoxic effects of the newly synthesized diphenyl(tetrahydro-5H-indeno[2,1-c]quinolin-2-yl)phosphine oxides 8, diphenyl(7H-indeno[2,1-c]quinolin-2-yl)phosphine oxides 9, and diphenyl(7-oxo-7H-indeno[2,1-c]quinolin-2-yl)phosphine oxides 10 derivatives were studied against several human cell lines: A549 (carcinomic human alveolar basal epithelial cell), SKOV3 (human ovarian carcinoma), and HEK293 (human embryonic kidney). Furthermore, in order to analyze the selective cytotoxicity facing exclusively cancerous cell lines, toxicity against a non-cancerous cell line (MRC-5, lung fibroblast cells) was also evaluated (Table 3). The cell counting kit (CCK-8) assay was employed to assess the growth inhibition and cell proliferation inhibitory activities of the compounds, which are described in Table 3 as IC50 values.
(§2) Cells were cultured according to the supplier’s instructions. Cells were seeded in 96-well plates at a density of 1.5–3 × 10^3 cells per well and incubated overnight in 0.1 mL of media supplied with 10% Fetal Bovine Serum (Lonza) in a 5% CO2 incubator at 37 °C. On day 2, drugs were added and the samples were incubated for 48h. After treatment, 10 μL of the cell counting kit-8 was added into each well for an additional 2h incubation at 37 °C. The absorbance of each well was determined by an Automatic Elisa Reader System at 450 nm wavelength (deducting 620 nm). CPT was used as the positive control.

[2] = system: HEK293 (human embryonic kidney); assay: CCK-8 cytotoxicity assay, HEK293; assay type: cell-based; conditions: HEK293 cells, 48h
Excerpt: as §1, §2

[3] = system: MRC-5, lung fibroblast cells; assay: CCK-8 cytotoxicity assay, MRC5; assay type: cell-based, human; conditions: Homo sapiens; MRC5 non-cancerous cells, 48h, CCK-8
Excerpt: as §1, §2

[4] = system: SKOV3 (human ovarian carcinoma); assay: CCK-8 cytotoxicity assay, SKOV3; assay type: cell-based; conditions: SK-OV-3, SKOV3 cells, 48h
Excerpt: as §1, §2

human TOP1 [5] = biological target: T1, human TOP1 (Homo sapiens, UniProt P11387); assay: TOP1 supercoiled plasmid DNA relaxation assay; assay type: biochemical; conditions: for TOP1 Inhibition 1 min: 1 min reaction; for TOP1 Inhibition 1 min / TOP1 Inhibition 3 min / TOP1 Inhibition 5 min: compounds at 100 μM, semiquantitative; for TOP1 Inhibition 3 min: 3 min reaction; for TOP1 Inhibition 5 min: 5 min reaction; for Persistence of TOP1 inhibition over the time course: 100 μM, in words
T1 construct: made in house; host or cells: Saccharomyces cerevisiae TOP1 null strain RS190, plasmid pHT143 (GAL promoter)
T1 sequence (P11387 1-765): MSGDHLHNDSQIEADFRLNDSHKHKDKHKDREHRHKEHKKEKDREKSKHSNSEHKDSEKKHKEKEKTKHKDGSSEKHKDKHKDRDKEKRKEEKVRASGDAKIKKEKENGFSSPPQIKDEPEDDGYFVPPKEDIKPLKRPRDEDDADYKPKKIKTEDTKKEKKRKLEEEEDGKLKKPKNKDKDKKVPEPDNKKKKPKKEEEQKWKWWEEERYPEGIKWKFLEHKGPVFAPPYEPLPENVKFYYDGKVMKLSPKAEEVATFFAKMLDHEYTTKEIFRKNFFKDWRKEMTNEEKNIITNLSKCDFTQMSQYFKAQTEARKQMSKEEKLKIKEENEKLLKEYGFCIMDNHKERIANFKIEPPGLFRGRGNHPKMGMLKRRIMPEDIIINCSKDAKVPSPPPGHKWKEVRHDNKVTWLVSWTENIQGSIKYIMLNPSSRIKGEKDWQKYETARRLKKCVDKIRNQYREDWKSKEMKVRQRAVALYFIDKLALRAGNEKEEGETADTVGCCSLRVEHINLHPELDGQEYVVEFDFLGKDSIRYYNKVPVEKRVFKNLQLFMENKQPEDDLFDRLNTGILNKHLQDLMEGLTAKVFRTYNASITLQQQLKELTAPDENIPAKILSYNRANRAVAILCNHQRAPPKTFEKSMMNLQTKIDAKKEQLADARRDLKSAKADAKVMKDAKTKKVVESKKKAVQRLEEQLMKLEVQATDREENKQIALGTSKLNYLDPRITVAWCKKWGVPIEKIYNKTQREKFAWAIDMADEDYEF
Excerpt: The effect of the previously prepared compounds as TOP1 inhibitors was studied. A conventional supercoiled plasmid relaxation assay was used to determine if the newly fused tetrahydroindenoquinolines 8, more aromatic indenoquinolines 9, and carbonyl derivatives 10 with phosphine oxide substituents inhibit human TOP1 activity by converting supercoiled plasmid DNA to its relaxed form. In these experiments, compound samples were mixed with the enzyme followed by the addition of a supercoiled plasmid DNA substrate, and incubation continued for increasing time intervals (1 min, 3 min, and 5 min). The reaction was terminated by the addition of SDS. DNA relaxation products were then resolved by 1% agarose electrophoresis gel and visualized by gel red staining.
The yeast Saccaromyces cerevisiae TOP1 null strain RS190, which was used for the expression of recombinant human TOP1, was a kind gift from R. Sternglanz (State University of New York, Stony Brook, NY, USA). Plasmid pHT143, for the expression of recombinant TOP1 under the control of an inducible GAL promoter, was described. The plasmids pHT143 were transformed into the yeast S. cerevisiae strain RS190. The proteins were expressed and purified by affinity chromatography essentially as described. The protein concentrations were estimated from Coomassie blue-stained SDS/polyacrylamide gels by comparison to serial dilutions of bovine serum albumin (BSA).
TOP1 activity was assayed using a DNA relaxation assay by incubating 110 ng/mL of TOP1 with 0.5 µg of negatively supercoiled pUC18 in […] of reaction buffer (20 mM Tris HCl, 0.1 mM Na2EDTA, 10 mM MgCl2, […] acetylated BSA, and 150 mM KCl, pH 7.5). The effect of the synthesized phosphorylated derivatives 8, 9, and 10 on the TOP1 activity was measured by adding different concentrations of the compounds, at different time points, as indicated in the text. The reactions were performed at 37 °C stopped by the addition of 0.5% SDS after the indicated time intervals. The samples were protease-digested and electrophoresed in a horizontal 1% agarose gel in 1xTBE (50 mM Tris, 45 mM boric acid, 1 mM EDTA) at 25V during 18h. The gel was stained with gel red (BIOTIUM, 5 mg/mL), destained with water, and photographed under UV illumination. Since all drugs were dissolved in dimethyl sulfoxide (DMSO), a […] control sample containing the same DMSO concentration as the samples incubated with the drugs was included in all experiments.

human TOP1 [6] = biological target: T1, human TOP1; assay: TOP1 supercoiled plasmid DNA relaxation assay; assay type: biochemical; conditions: 30 min reaction; compounds at 100 μM; semiquantitative

Row | TOP1 Inhibition 1 min (human TOP1 [5]) | TOP1 Inhibition 3 min (human TOP1 [5]) | TOP1 Inhibition 5 min (human TOP1 [5]) | TOP1 Inhibition 30 min (human TOP1 [6]) | Persistence of TOP1 inhibition over the time course (human TOP1 [5]) | SMILES | IC50 ([1]; Homo sapiens, A549, 48 h) | IC50 [2] | IC50 [3] | IC50 [4] | Cytotoxicity against A549 (in words) [1] | IC50 ([1]; listed as 9k)
1 | ++ | ++ | ++ | – | – | COc1ccc(-c2nc3ccc(P(=O)(c4ccccc4)c4ccccc4)cc3c3c2Cc2ccccc2-3)cc1 [Compound 9h, Diphenyl(6-(4-methoxyphenyl)-7H-indeno[2,1-c]quinolin-2-yl)phosphine oxide] | – | – | – | – | – | –
2 | + (weak inhibition) | + (weak inhibition) | + (weak inhibition) | – | – | O=P(c1ccccc1)(c1ccccc1)c1ccc2nc(-c3ccc(F)cc3)c3c(c2c1)-c1ccccc1C3 [Compound 9c] | > 50 µM | > 50 µM | > 50 µM | > 50 µM | – | –
3 | ++ | ++ | ++ | – | – | O=C1c2ccccc2-c2c1c(-c1ccc(F)c(F)c1)nc1ccc(P(=O)(c3ccccc3)c3ccccc3)cc21 [Compound 10e] | > 50 µM | > 50 µM | > 50 µM | > 50 µM | – | –
4 | + (weak inhibition) | + (weak inhibition) | + (weak inhibition) | – | – | O=P(c1ccccc1)(c1ccccc1)c1ccc2nc(-c3ccc(Br)cc3)c3c(c2c1)-c1ccccc1C3 [Compound 9j, Diphenyl(6-(4-bromophenyl)-7H-indeno[2,1-c]quinolin-2-yl)phosphine oxide] | 42.3 ± 2.09 µM | > 50 µM | > 50 µM | > 50 µM | slight cytotoxicity | > 50 µM
5 | + (weak inhibition) | + (weak inhibition) | + (weak inhibition) | – | – | O=P(c1ccccc1)(c1ccccc1)c1ccc2nc(-c3cccc(F)c3)c3c(c2c1)-c1ccccc1C3 [Compound 9d, Diphenyl(6-(3-fluorophenyl)-7H-indeno[2,1-c]quinolin-2-yl)phosphine oxide] | > 50 µM | > 50 µM | > 50 µM | > 50 µM | – | –
6 | + (weak inhibition) | ++ | ++ | – | more persistent inhibition | O=P(c1ccccc1)(c1ccccc1)c1ccc2nc(-c3ccccc3)c3c(c2c1)-c1ccccc1C3 [Compound 9a, Diphenyl(6-phenyl-7H-indeno[2,1-c]quinolin-2-yl)phosphine oxide] | > 50 µM | > 50 µM | > 50 µM | > 50 µM | – | –
7 | + (weak inhibition) | + (weak inhibition) | + (weak inhibition) | – | – | O=C1c2ccccc2-c2c1c(-c1cccc(F)c1)nc1ccc(P(=O)(c3ccccc3)c3ccccc3)cc21 [Compound 10d, (6-(3-Fluorophenyl)-7-oxo-7H-indeno[2,1-c]quinolin-2-yl)diphenylphosphine oxide] | > 50 µM | > 50 µM | > 50 µM | > 50 µM | – | –
8 | ++ | ++ | ++ | – | – | O=P(c1ccccc1)(c1ccccc1)c1ccc2nc(-c3ccc(F)cc3F)c3c(c2c1)-c1ccccc1C3 [Compound 9f, Diphenyl(6-(2,4-difluorophenyl)-7H-indeno[2,1-c]quinolin-2-yl)phosphine oxide] | 41.7 ± 7.25 µM | > 50 µM | > 50 µM | > 50 µM | slight cytotoxicity | –

Continued, compound first:

Row | SMILES | TOP1 Inhibition 1 min (human TOP1 [5]) | TOP1 Inhibition 3 min (human TOP1 [5]) | TOP1 Inhibition 5 min (human TOP1 [5]) | TOP1 Inhibition 30 min (human TOP1 [6]) | Persistence of TOP1 inhibition over the time course (human TOP1 [5]) | IC50 ([1]; Homo sapiens, A549, 48 h) | IC50 [2] | IC50 [3] | IC50 [4] | Cytotoxicity against A549 (in words) [1] | IC50 ([1]; listed as 9k)
9 | O=P(c1ccccc1)(c1ccccc1)c1ccc2c(c1)C1c3ccccc3CC1C(c1ccc(F)cc1F)N2 (stereo not shown) [Compound 8f, Diphenyl(6-(2,4-difluorophenyl)-6,6a,7,11b-tetrahydro-5H-indeno[2,1-c]quinolin-2-yl)phosphine oxide] | + (weak inhibition) | + (weak inhibition) | + (weak inhibition) | – | – | > 50 µM | > 50 µM | > 50 µM | 31 ± 3.17 µM | – | –
10 | O=P(c1ccccc1)(c1ccccc1)c1ccc2c(c1)C1c3ccccc3CC1C(c1ccc(F)c(F)c1)N2 (stereo not shown) [Compound 8e, Diphenyl(6-(3,4-difluorophenyl)-6,6a,7,11b-tetrahydro-5H-indeno[2,1-c]quinolin-2-yl)phosphine oxide] | ++ | ++ | ++ | – | – | > 50 µM | > 50 µM | > 50 µM | 13.2 ± 2.79 µM | – | –
11 | O=P(c1ccccc1)(c1ccccc1)c1ccc2c(c1)C1c3ccccc3CC1C(c1ccccc1)N2 (stereo not shown) [Compound 8a, Diphenyl(6-phenyl-6,6a,7,11b-tetrahydro-5H-indeno[2,1-c]quinolin-2-yl)phosphine oxide] | ++ | ++ | ++ | ++ | more persistent inhibition | 40.2 ± 7.13 µM | – | > 50 µM | 6.35 ± 1.73 µM | – | –
12 | O=P(c1ccccc1)(c1ccccc1)c1ccc2c(c1)C1c3ccccc3CC1C(c1cccc(F)c1)N2 (stereo not shown) [Compound 8d, Diphenyl(6-(3-fluorophenyl)-6,6a,7,11b-tetrahydro-5H-indeno[2,1-c]quinolin-2-yl)phosphine oxide] | ++ | ++ | ++ | – | – | 43.1 ± 12.1 µM | > 50 µM | > 50 µM | > 50 µM | – | –
